Experiment [1] deals with T1, human cannabinoid type-2 receptors (hCB2) (Homo sapiens, UniProt P34972).
T1 construct: expressed in transfected cells; host or cells: CHO cells (CHO-hCB2), membranes or intact cells
Nature of the experiment: Competition receptor binding with [3H]CP-55,940, CHO-hCB2 membranes. The conditions noted are these: for displacement of [3H]CP-55,940 from hCB2Rs: single 1 μM concentration, 0.2 nM [3H]CP-55,940, CHO-hCB2. As for the experimental part: Membrane homogenates were prepared for competition receptor binding and [^35S]GTPγS binding studies by using pellets previously frozen of CHO-hCB1 or CHO-hCB2 cells as described in ([Franks et al., 2014]). In short, pellets were thawed on ice, combined in a 40 ml glass Dounce homogenizer and homogenized in 20 ml of cold buffer (50 mM HEPES at pH 7.4, 3 mM MgCl2, and 1 mM EGTA) using 10 strokes. Homogenates were then centrifuged at 40,000 × g for 10 min at 4°C. After discarding the supernatant, pellets were homogenized and centrifuged twice more. Final pellets were re-suspended in ice-cold 50 mM HEPES, pH 7.4, aliquoted and stored at -80°C for future use. Protein concentration was determined the same day, prior to freezing, using BCA^TM Protein Assay (Thermo Fisher Scientific, Waltham, MA, USA).
The final volume of each sample was 1 ml, containing 50 mM Tris-HCl buffer (pH 7.4), 0.05% bovine serum albumin, 5 mM MgCl2, increasing concentrations of non-radioactive competing SERM ligands, and either 100 μg of CHO-hCB1 or 50 μg of CHO-hCB2 membrane homogenates. Non-specific binding was defined by radioactivity remaining in the presence of 1 μM of the non-radioactive CB1/CB2 agonist WIN-55,212-2. Each sample condition was performed in triplicate and allowed to reach equilibrium at room temperature for 90 min. Reactions were terminated by rapid vacuum filtration through Whatman GF/B glass fiber filters (Brandel, Inc.), followed by four 4 ml washes of ice-cold filtration buffer (50 mM Tris at pH 7.4 and 0.05% BSA). Filter punches of individual samples were placed in scintillation vials containing 4 mls of ScintiverseTM BD cocktail scintillation fluid (Fisher Scientific, Pittsburg, PA, USA). Final counts were determined using liquid scintillation spectrophotometry (Tri Carb 2100 TR Liquid Scintillation Analyzer, Packard Instrument Company, Meriden, CT, USA) after overnight incubation.
(§1) Statistical analyses were conducted by utilizing GraphPad Prism v6.0g (GraphPad Software, Inc.; San Diego, CA, USA). IC50 values from competition receptor binding curves were derived by non-linear regression. Experimental IC50 values were converted to Ki values (a measure of receptor affinity) by using the Cheng–Prusoff equation ([Cheng and Prusoff, 1973]). Non-linear regression analysis of concentration-effect curves was also used to determine potency (ED50 or IC50) and efficacy (Emax or Imax) for modulation of GTPγS and adenylyl cyclase activity, respectively. All IC50, EC50, Ki, and Kb values were converted to pEC50, pIC50, pKi, and pKb values in order to permit use of parametric statistical analyses. For all experiments comparing three or more values, an one-way ANOVA was employed, followed by Dunnett’s or Tukey’s post hoc tests. For comparisons of two values, an unpaired t-test was utilized. To determine significant radioligand displacement or modulation of G-protein activity compared to basal levels, a one-sample t-test was employed.
For initial comparison of potential SERM binding to CBRs, 14 commercially available compounds from 5 structurally distinct classes (Figure 1) were subjected to a radioligand binding screen (Figure 2).

Experiment [2] has as its target T1, human cannabinoid type-2 receptors (hCB2). Briefly: Adenylyl cyclase assay (forskolin-stimulated cAMP), intact CHO-hCB2 cells. Type of experiment: cell-based. To be noted: for Emax: elevation of cAMP, read-out: EMAX, Intracellular [3H]cAMP; for EC50: increase of cAMP, 10 μM forskolin, read-out: EC50, Intracellular [3H]cAMP. The procedure:
(§2) Briefly, cells cultured between passages 4 and 15 were seeded into 24-well plates at a concentration of 6.5 million cells per plate and incubated overnight in a humidified incubator maintained at 37°C and 5% CO2. Growth media was removed the next day and replaced with media containing […] [^3H]adenine, 0.9g/L NaCl, and 0.5 mM isobutyl-methyl-xanthine (IBMX) for 2–3 h. Radioactive media was then removed and each well treated with 0.5 ml of varying concentrations of SERM compounds in a Krebs-Ringer-HEPES solution (10 mM HEPES, 110 mM NaCl, 25 mM Glucose, 55 mM Sucrose, 5 mM KCl, 1 mM MgCl2, 1.8 mM CaCl2, pH 7.4) containing 0.5 mM IBMX and 10 μM forskolin. Plates were then floated in a 37°C water bath for 15 min before reactions were terminated by addition of 50 μL of 2.2 N HCl to each well.
as §1, with “Experimental IC50 values were converted to Ki values (a measure of receptor affinity) by using the Cheng–Prusoff equation ([Cheng and Prusoff, 1973]).” left out
To provide a second measure of intrinsic activity, the ability of SERMs to modulate intracellular levels of cAMP in intact cells was examined (Figure 6). CBRs couple to Gi/Go-proteins, and thus cannabinoid agonists inhibit activity of the downstream intracellular effector adenylyl cyclase, reducing intracellular cAMP levels.

For experiment [3] the target is unchanged. Nature of the experiment: Antagonism of CP-55,940 inhibition of adenylyl cyclase, intact CHO-hCB2 cells. Type of experiment: cell-based. To be noted: for IMAX of CP-55,940 after pre-incubation with the drug / type of antagonism at hCB2Rs: CHO-hCB2 cells; for IMAX of CP-55,940 after pre-incubation with the drug: pre-incubation 30 min: OSP, NAF 10 μM, RAL, BAZ 2 μM, AM-630 1 μM; for type of antagonism at hCB2Rs: CP-55,940 inhibition of adenylyl cyclase. As for the experimental part: as §2
Reactions were then terminated by adding 50 μL of 2.2 N HCl to each well. [^3H]cAMP was isolated using alumina column chromatography and radioactivity quantified following addition of 10 mls of scintiverseTM BD cocktail scintillation fluid (Fisher Scientific, Pittsburg, PA, USA) by liquid scintillation spectrophotometry (Tri Carb 2100 TR Liquid Scintillation Analyzer, Packard Instrument Company, Meriden, CT, USA).
as §1, with “Experimental IC50 values were converted to Ki values (a measure of receptor affinity) by using the Cheng–Prusoff equation ([Cheng and Prusoff, 1973]).” left out
IC50 and Kb values were converted to pIC50 and pKb values (pIC50 = -Log[IC50] or pKb = -Log[Kb], respectively) to allow use of parametric statistics for comparison.

Where [4] appears, read: Ki, [3H]CP-55,940 Binding CHO-hCB2, CHO-hCB2 membranes, Cheng-Prusoff from IC50.

Read-outs that look alike come from different tables or passages of the source.

Usually Ki stands for the dissociation constant of the complex between target and ligand, obtained from inhibition or displacement. By Emax is commonly meant the size of the effect at its maximum, as opposed to the concentration needed. Usually EC50 stands for the midpoint of the concentration-response curve.

T1 sequence (P34972 whole entry): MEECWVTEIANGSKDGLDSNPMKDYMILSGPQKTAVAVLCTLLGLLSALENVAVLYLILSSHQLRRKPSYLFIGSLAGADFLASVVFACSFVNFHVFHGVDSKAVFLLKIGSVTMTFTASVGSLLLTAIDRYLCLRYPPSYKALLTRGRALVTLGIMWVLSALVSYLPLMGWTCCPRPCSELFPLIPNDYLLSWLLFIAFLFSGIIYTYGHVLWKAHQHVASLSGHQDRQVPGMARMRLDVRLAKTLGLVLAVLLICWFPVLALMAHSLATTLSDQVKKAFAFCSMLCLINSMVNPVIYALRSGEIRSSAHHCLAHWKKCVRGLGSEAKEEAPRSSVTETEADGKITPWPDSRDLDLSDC

`Cc1c(-c2ccc(O)cc2)n(Cc2ccc(OCCN3CCCCCC3)cc2)c2ccc(O)cc12` [BAZ, bazedoxifene] showed an inhibition constant Ki in experiment [1] (pKi, [3H]CP-55,940 Binding CHO-hCB2) of 254 nM. Further, the “displacement of [3H]CP-55,940 from hCB2Rs” value in experiment [1] came to 73%. Also, in experiment [2], the Emax worked out at 352 ± 14% and the EC50 turned out to be 1980 nM. In experiment [3], the “IMAX of CP-55,940 after pre-incubation with the drug” value (“IMAX” for short) is 28.8 ± 3.0^∗∗ % and the “type of antagonism at hCB2Rs” value is on record as “insurmountable antagonist”.
With `OCCOc1ccc(/C(=C(/CCCl)c2ccccc2)c2ccccc2)cc1` [OSP, ospemifene], in experiment [1] (setting [4]), the affinity corresponds to a Ki of 3720 nM. In experiment [1] (affinity for hCB2Rs (Ki), CHO-hCB2 membranes), this compound showed a Ki of 1000 to 4000 nM. Besides, in experiment [2], the Emax came to 279 ± 17% and the EC50 worked out at 1440 nM. For the same compound, in experiment [3], the Kb stood at 1260 nM, the “IMAX” value came out at 31.7 ± 2.3% and the “type of antagonism at hCB2Rs” value was “surmountable antagonists”.
In the case of `O=C(c1ccc(OCCN2CCCCC2)cc1)c1c(-c2ccc(O)cc2)sc2cc(O)ccc12` [RAL, raloxifene], the Ki in experiment [1] (setting [4]) is around 200 nM. The affinity in experiment [1] (pKi, [3H]CP-55,940 Binding CHO-hCB2, CHO-hCB2 membranes, mean ± SEM), expressed as Ki, was 240 nM. Also, the “displacement of [3H]CP-55,940 from hCB2Rs” value in experiment [1] is 80%. In experiment [2], the Emax was found to be 234 ± 21% and the EC50 is 873 nM. In experiment [3], the “IMAX” value worked out at 33.0 ± 1.3% and the “type of antagonism at hCB2Rs” value is “surmountable antagonists”. Further, in experiment [3] (read-out: Kb (antagonist dissociation constant), CHO-hCB2), the Kb came to 66.5 nM.
As for `COc1ccc2c(c1)CCC(c1ccccc1)=C2c1ccc(OCCN2CCCC2)cc1` [NAF, nafoxidine], the Ki in experiment [1] (CHO-hCB2 membranes, read-out: affinity for hCB2Rs (Ki)) was 1000 to 4000 nM; in experiment [1] (setting [4]), 1300 nM. In addition, the “IMAX” value in experiment [3] is recorded as 32.3 ± 2.3%. In experiment [3], the “type of antagonism at hCB2Rs” value is given as “surmountable antagonists”. In experiment [3] (intact CHO-hCB2 cells, mean ± SEM, read-out: pKb, CHO-hCB2 (converted)), the Kb is 337 nM.

Values taken from paper PMC5177629, “Selective Estrogen Receptor Modulators: Cannabinoid Receptor Inverse Agonists with Differential CB1 and CB2 Selectivity” (Frontiers in Pharmacology, 2016).
